# In patent publication US20040087539A1, “Method of treating conditions related to platelet activity” (priority 2003, published 2004):
# What was measured:
# platelets [1] = test: Ristocetin-induced vWF-dependent platelet aggregation in platelet-rich plasma; assay type: cell-based, human; details: for integrin-dependent second wave of platelet aggregation induced by ristocetin: PRP preincubated 37° C. 5 min, KT5823 2 pM, Rp-8pCPT-cGMP 0.2 μM, KT5720 2 pM [sic], FIG. 3A
# Procedure: (§1) Fresh blood from healthy volunteers was anticoagulated with 1/7 volume of ACD (2.5% trisodium citrate, 2% dextrose and 1.5% citric acid). Platelets were washed with CGS buffer (sodium chloride 0.12 M, trisodium citrate 0.0129 M and d-glucose 0.03 M, pH 6.5), resuspended in modified Tyrode's solution and allowed to incubate at 22° C. for 1 hours as previously described. In experiments using platelet-rich plasma (PRP), 1/10 volume of 3.8% trisodium citrate was used as anticoagulant. Platelet aggregation was measured using a turbidometric platelet aggregometer (Chrono-Log) at 37° C. vWF-dependent platelet aggregation was induced by addition of ristocetin or botrocetin to PRP. To differentiate CPIb-IX-mediated platelet agglutination from the second wave of integrin-dependent platelet aggregation, final concentrations of ristocetin were adjusted in each experiment to achieve a two-wave curve of aggregation. Washed platelets were used in platelet aggregation induced by a-thrombin (Enzyme Research Laboratories). To examine the effects of PKG, 100 μM of membrane permeable cGMP analogs, 8-bromo-cGMP or 8-dibutyl-cGMP (Calbiochem), or 1 μM sildenafil citrate (Pfizer) and added simultaneously with subthreshold concentrations of agonists. PKG inhibitors KT5823 (2 pM) and Rp-8PCPT-cGMP (0.2 mM) were preincubated with platelets at 37° C. for 5 minutes before addition of agonists.
# (§2) In FIG. 3A, platelet rich-plasma (PRP) was preincubated at 37° C. for 5 mm with PKG inhibitors KT5823 (2 pM) or Rp-8pCPT-cGMP (0.2 μM). PRP was also incubated with DMSO (vehicle for KT5823), a PKA inhibitor, KT5720 (2 pM), or buffer (Control). The vWF modulator, ristocetin, was then added to induce vWF-GPIb-IX interaction. […] In FIG. 3B, a subthreshold concentration of ristocetin was added to PRP immediately followed by addition of 8-bromo-cGMP or buffer (Control). PRP also was preincubated with integrin inhibitor RGDS before adding ristocetin and 8-bromo-cGMP. In FIG. 3C, platelets were preincubated with or without PKG inhibitor KT5823, then allowed to spread on vWF-coated glass chamber slides. Platelets were stained with an anti-GPIb antibody, and fluorescein-labeled secondary antibody. The slides were imaged under a confocal microscope (magnification =630×).
# (§3) In FIG. 6A, increasing concentrations of sildenafil or control 0.15 M NaCl solution were added to platelet-rich plasma followed by a subthreshold concentration of ristocetin. Platelet aggregation was recorded using a platelet aggregometer. In FIG. 6B, sildenafil or control buffer was added to washed platelets followed by addition of subthreshold doses of thrombin to induce platelet aggregation. It was noted that platelet aggregation occurs in the presence of sildenafil. The figure includes the representative results of at least three experiments.
# (§4) In FIG. 7A, PRP was preincubated with 0.1 mM 8-bromo-cGMP for increasing lengths of time at 37° C. as indicated. The vWF modulator, ristocetin (1.25 mg/ml), then was added to induce platelet aggregation in a turbidometric platelet aggregometer. In FIG. 7B, PRP was preincubated with a high concentration of 8-bromo-cGMP (1 mM) for 5 minutes. Ristocetin then was added to induce platelet aggregation. In FIGS. 7C and 7D, washed platelets in modified Tyrode's solution were preincubated with 1 mM 8-bromo-cGMP (C), or various concentrations of 8-pCPT-cGMP (D) at 37° C. for 5 minutes. Thrombin (0.05 u/ml) then was added to induce platelet aggregation.
# platelets [2] = test: Low-dose α-thrombin-induced aggregation of washed platelets; assay type: cell-based, human; details: for platelet aggregation induced by 0.05 units/ml α-thrombin: washed platelets preincubated 5 min, KT5823 2 μM, Rp-8pCPT-cGMP 0.2 mM, SZ2 40 pg/ml [sic], FIG. 5A
# Procedure: as §1
# In FIG. 5A, washed platelets were preincubated with 40 pg/mi anti-GPIba monoclonal antibody SZ2, integrin inhibitor RGDS, or inhibitors of PKG, KT5823 (2 μM) or Rp-8pCPT-cGMP (0.2 mM) (Calbiochem), for 5 min. Platelets also were preincubated with DMSO (vehicle for KT5823), KT5720 or buffer (Control) as controls. α-Thrombin (0.05 units/mi) then was added to induce platelet aggregation. Nonspecific JgG and RGES peptides also were examined as additional controls, but had no effect (not shown). In FIG. 5B, a subthreshold dose of thrombin was added to platelets immediately followed by addition of PKG activator 8-bromo-cGMP or buffer (Control). Shown in the figure are the representative results of at least three experiments.
# as §3, §4
# [3] = test system: 123 cells (CHO cells expressing recombinant human GPIb-IX and integrin αIIbβ3); test: vWF-induced GPIb-IX-mediated activation of integrin αIIbβ3 (Oregon green-labeled fibrinogen binding, flow cytometry); assay type: cell-based, Chinese Hamster; details: 123 cells; preliminary studies, data not shown
# Procedure: Human PKG Iβ cDNA was cloned by RT-PCR, using human platelet mRNA as templates. Sequence of the human PKG Iβ cDNA fragment matches the published sequence. Cloning of human PKG Iα cDNA was described previously. PKG Iα or Iβ in pCDNA3.1/Zeo+vector was transfected into 123 cells (CHO cells expressing recombinant human CPIb-IX and integrin αIIbβ3 using Lipofectamine plus (BRL). Expression of PKG was assessed by Western blotting with an antihuman PKG I antibody (Calbiochem). The kinase activity of the expressed enzymes was measured in cell homogenates using BPDEtide (Calbiochem) as substrate as detailed previously. vWF-induced GPIb-IX-mediated activation of integrin αIIbβ3 was examined by flow cytometry analysis of Oregon green-labeled fibrinogen binding to integrln αIIbβ3 as described previously. Briefly, cells were detached from tissue culture plate using 0.5 mM EDTA, washed at 4° C. and resuspended in modified Tyrode's solution. Cells then were incubated with Oregon green-labeled fibrinogen (20 μg/ml) in the presence of ristocetin and vWF at 22° C. for 30 minutes, and analyzed by FACScalibur flow cytometer. Nonspecific binding of fibrinogen was estimated by measuring fibrinogon binding in the presence of a specific integrin inhibitor RGDS (1 mM) (see Refs. 13 and 43-45).
# In FIG. 1A, CHO cells expressing GPLb-JX and integrin αIIbβ3 (123 cells) were transfected with cDNA encoding PKGIα or vector. Expression of PKG Ia in 123 cells was detected by Western blotting with an anti-human PKG I antibody (Insert), and recombinant PKG activity was determined in the absence or presence of 20 μM 8-bromo-cGMP as previously described. Results are expressed as mean +SD (n=3). For FIGS. 1B and 1C, reconstitution of GPIb-IX-mediated integrin activation in CHO cells was published (see Ref. 13). […] Cells were analyzed by flow cytometry. Quantitative results from three experiments are expressed as fibrinogen binding indices (total bound fluorescence (Fg)/nonspecifically bound fluorescence (Fg+RGDS)), and shown in FIG. 1B (mean ±SD).
# platelets [4] = test: Platelet spreading on vWF-coated surface; assay type: cell-based, human; details: FIG. 3C
# Procedure: Platelets were allowed to adhere and spread on 10 μg/ml vWF-coated glass chamber slides (Nunc) at 37° C. for 1 hour. After three washes, platelets were fixed by adding 4% paraformaldehyde in PBS. Platelets were permeabilized by adding 0.1 M Tris, 0.01 M EGTA, 0.15 M NaCl, 5 mM MgCl2, pH 7.4, containing 0.1% Triton X-100, 0.5 mM leupeptin, 1 mM PMSF, and 0.1 mM E64, and then incubated with 20 μg/ml of anti-GPIba antibody (anti-IbαC) at 22° C. for 1 hour. Platelets were further incubated with fluorescein-labeled secondary antibody at 22° C. for 30 mm. After additional washes, platelets were scanned under a Zeiss LSM 510 confocai microscope (Magnification=630×).
# as §2, with “Platelets were stained with an anti-GPIb antibody, and fluorescein-labeled secondary antibody. The slides were imaged under a confocal microscope (magnification =630×).” left out
# platelets [5] = test: Measurement of cGMP formation in washed platelets (enzyme immunoassay); assay type: cell-based, human; details: ristocetin plus vWF 15 μg/ml or glyco-SNAP1 100 μM, 5 minutes, FIG. 4
# Procedure: Washed platelets (3×10^8/ml) resuspended in 400 μl Tyrode's buffer were stirred at 37° C. after addition of control buffer, 1 mg/mi ristocetin alone, 15 pg/mi vWF and 1 mg/mi ristocetin, or 100 μM glyco-SNP1. The reaction was stopped by addition of 400 μl of ice-cold 12% (w/v) trichloroacetic acid. Samples were mixed and centrifuged at 2000×g for 15 ruin at […]. Supenatant was removed and washed with 5 volumes of water-saturated diethyl ether 4 times, and then lyophilized. cGMP levels were measured using a cGMP enzyme immunoassay kit from Amersham-Pharmacia Biotech.
# Washed platelets (3×10^8/ml) were preincubated at 37° C. for 10 mm with buffer, control JgG, a monoclonal antibody against GPIba, AK2. Platelets then were further incubated in a platelet aggregometer for 5 minutes after addition of buffer (Control), 1.25 mg/ml ristocetin only (Risto), ristocetin plus vWF (vWF) (15 μg/ml) or glyco-SNAP1 (100 μM). The reaction was stopped by addition of 400 μl of ice-cold 12% (w/v) trichloroacetic acid. CGMP concentrations were determined using a cGMP enzyme immunoassay kit. Results are expressed as mean ±SD (n=3).
# [6] = test system: CHO cells expressing human platelet receptors; test: Cell adhesion to immobilized vWF under flow; assay type: cell-based, Chinese Hamster; details: sildenafil 5 μM, RGDS 4 mM
# Procedure: CHO cells expressing human platelet receptors were resuspended in modified Tyrode's buffer, pH 7.4, containing 1 mg/mi of bovine serum albumin (BSA) (see Ref. 46), and final cell count was 5×10^5/ml. […] Purified human vWF (10 μg/ml in 0.1 M NaHCO3, pH 8.3) was added to glass microcapillary tubes (inner diameter of 1.33 mm and a length of 7.2 cm), and incubated at 4° C. for 20 h. The vWF-coated microcapillary tubes then were incubated with 5% BSA. After washing, the cell suspension was aspirated through the tube by a syringe pump (Harvard Apparatus Inc.) at desired shear rates for 1.2 minutes and washed with modified Tyrode's buffer for additional 10 minutes at the same shear rates to remove transiently adherent cells. The experiments were continuously recorded on videotape using a video cassette recorder (model 9500, Sony). The number of stably adherent cell on immobilized vWF was counted on images obtained at 20 randomly selected positions in the vWF-coated tubes.
# In FIGS. 2A and B, vWF-coated capillary tubes were perfused with equivalent numbers (5×10^5/ml) of CHO cells expressing recombinant GPLb-JX alone (1b9), integrin αIIbβ3 alone (2b3a), both GPIb-IX and integrin αIIbβ3 (123) or expressing GPJb-JX, integrin α^IIbβ3 and PKG Ia (123PKG) at a shear rates of 800 s^−1 (A) or 1500 s^−1 (B) for 1.2 minutes, and then perfused with the modified Tyrodes buffer for 10 minutes at the same shear rates to wash out transient adherent cells. The expenments were recorded in real time. Cells stably adherent to vWF-coated capillary tubes at 20 randomly selected locations were counted.
# In FIG. 2C, vector-transfected 123 cells (123) or 123PKG cells also was perfused into vWF-coated glass capillary tubes as described in FIG. 2A in the absence or presence (+RGDS) of an integrin inhibitor RGDS peptide (4 mM) and in the absence (Control) or presence of cGMP-enhancing drug, sildenafil (5 μM). […] The experiments were repeated at least three times.
compound,measurement,setting,value
Nc1nc2c(nc(Sc3ccc(Cl)cc3)n2C2O[C@@H]3COP(=O)(O)O[C@H]3[C@H]2O)c(=O)[nH]1 (stereo in doubt) [8-pCPT-cGMP],platelet aggregation together with a subthreshold concentration of ristocetin,"platelets [1]; PRP, agent added with subthreshold ristocetin (1 mg/mm [sic]) (or botrocetin), FIGS. 3B, 6A",induced integrin-dependent platelet aggregation
same,preincubation time required to inhibit platelets,"platelets [2]; 0.5 mM 8-pCPT-cGMP, washed platelets, thrombin 0.05 u/ml, FIG. 7D",less than 5 minutes
CCCCCCOC(=O)[C@]1(O)C[C@@H]2O[C@@]1(C)n1c3ccccc3c3c4c(c5c6ccccc6n2c5c31)C(=O)NC4 [KT5720],integrin-dependent second wave of platelet aggregation induced by ristocetin,platelets [1],no inhibitory effects
COC(=O)[C@@]1(OC)C[C@H]2O[C@]1(C)n1c3ccccc3c3c4c(c5c6ccccc6n2c5c31)C(=O)N(C)C4 [KT5823],GPIb-IX-mediated integrin activation,[3],inhibited
same,integrin-dependent second wave of platelet aggregation induced by ristocetin,platelets [1],abolished
same,platelet aggregation induced by 0.05 units/ml α-thrombin,platelets [2],inhibited
same,platelet spreading on a vWF-coated surface,platelets [4],inhibited
Nc1nc2c(nc(Sc3ccc(Cl)cc3)n2C2OC3COP(O)(=S)OC3C2O)c(=O)[nH]1 (stereo not drawn) [Rp-8-pCPT-cGMP],integrin-dependent second wave of platelet aggregation induced by ristocetin,platelets [1],inhibited
same,platelet aggregation induced by 0.05 units/ml α-thrombin,platelets [2],inhibited
CC(=O)NC(C(=O)NC1OC(CO)C(O)C(O)C1O)C(C)(C)SN=O (stereo not drawn) [glyco-SNAP1],platelet cGMP levels,platelets [5],comparable
RGDS,stable adhesion of PKG-expressing 123 cells (123PKG) to vWF under flow,"[6]; FIG. 2C, 8-bromo-cGMP not shown",inhibited
same,stable adhesion of sildenafil-treated 123 cells to vWF under flow,[6],inhibited
same,platelet aggregation induced by 0.05 units/ml α-thrombin,platelets [2],inhibited
RGES,platelet aggregation induced by 0.05 units/ml α-thrombin,platelets [2],no effect
"vWF: purified human von Willebrand factor, ligand of GPIb-IX",platelet cGMP levels,platelets [5],dramatic increase
